In brackets after ≈: the same amount, converted by molar mass. Like-named read-outs stand apart in the source and are kept apart here. Positions of bridges follow the written chain, without caps; N, C: chain ends. Non-standard residues stand in square brackets, D forms with d. Residues, ends and D or L forms follow the SMILES beside them. NMeF = CN[C@@H](Cc1ccccc1)C(=O)O; NMeNva = CCC[C@H](NC)C(=O)O; NMeC = CN[C@@H](CS)C(=O)O; NMeA = CN[C@@H](C)C(=O)O; dAbu = CC[C@@H](N)C(=O)O; dNMeA = CN[C@H](C)C(=O)O; Abu = CC[C@H](N)C(=O)O; Nleu = CC(C)CNCC(=O)O; NPrGly = CCCNCC(=O)O
Assays:
[1] = MDCK
Procedure: (§1) We also tested the permeabilities of the pure compounds in a cell-based trans-well permeability assay using Mdr1 knockout Madin–Darby canine kidney (MDCK) cells which minimize the endogenous efflux activity of traditional MDCK cells.[54]
(§2) The gMDCKI cell line (overexpressed cell line of Madin -Darby Canine Kidney which acquired from the NIH)
(§3) maintained in DMEM medium supplemented with 1% pen -strep, 5 µg/mL Plasmocin, and 10% FBS under
(§4) standard culture conditions (37 °C, 95% humidity, and 5% CO2), were seeded (0.75 x 10^5 cells) on the HTS
(§5) Transwell-96 permeable support (Corning) to form a confluent monolayer for two days.
(§6) All experimental steps were fully automated on Hamilton Vantage. Compound stock solution (1 mM in
(§7) DMSO) was diluted (10 μM final in HBSS, pH 7.4) with Lucifer Yellow as leakage indicator (20 μM). After
(§8) washing with HBSS buffer, the solution of test compounds was added to the apical side of the monolayers.
(§9) The plate was incubated for 3 h at 37 °C. T0 samples (10 µL of the 10 µM compounds diluted solution with
(§10) LY) were transferred to a 96-well plate, and then 40 µL of HBSS was added. After 3 hours, 50 μL basolateral
(§11) samples in the receiving plate were transferred to a fresh 96-well plate and added 100 μL of IS solution
(§12) (Propranolol). LY were read by plate reader and the samples were analyzed by LC/MS/MS.
(§13) The apparent permeability coefficient (Papp) is calculated from the permeation rate and compound
concentration at t=0h and t=3h. Where:
(§14) dQ/dt: amount of product present in the basal (A-B) or apical (B-A) compartment as a function of time
A: area of transwell (cm2).
(§15) C0: initial concentration of product applied in the apical (A -B) or basal (B-A) compartment (nmol/ml).

[2] = system: Mdr1 knockout Madin–Darby canine kidney (MDCK) cells
Procedure: as §1, §2, §3, §4, §5, §6, §7, §8, §9, §10, §11, §12, §13
concentration at t=0h and t=3h. Where:
as §14
A: area of transwell (cm2).
as §15

[3] = PAMPA, individually resynthesized pure compounds (primary protocol);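 further: artificial membrane of 1% soy lecithin in dodecane on a filter plate, donor and acceptor buffer PBS pH 7.4 with 5% DMSO, incubated overnight at room temperature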
Procedure: (§16) assay was carried out with a 96-well donor plate with 0.45 μ hydrophobic Immobilon-P membrane supports
(§17) (Millipore MAIPNTR10) and a 96-well Teflon acceptor plate (Millipore MSSACCEPTOR). The PAMPA
protocol then proceeded as follows:
(§18) Donor well solutions were prepared to a volume of 1 000 µL with the analytes as a solution in 1X
(§19) PBS pH 7.4 and 5% DMSO. To a 3 mL Eppendorf tube was added 950 µL of 1X PBS pH 7.4, 40
Analyte – 10 µM per compound
(§20) sonicated (5 min) to ensure full dissolution of the lecithin. The donor membrane plate was turned
(§21) upside down and bottom of the membranes exposed. 5 µL of the 1% soy lecithin solution in
(§22) dodecane was then placed on the bottom of the membrane, allowing the drop to spread across the
(§23) full area of the membrane. Any membranes with visible damage were not used in the assay. The
(§24) membranes were allowed to equilibrate for 5 min before loading.
(§25) 3. Each well within the Teflon block acceptor plate that was to be used in the assay was then loaded
(§26) with 300 µL of 1X PBS pH 7.4 and 5% DMSO.
(§27) Working without break, 150 µL of each donor well solution was transferred from the to the 96-well
(§28) donor plate. Each mixture of interest was r un in quadruplicate, using a new well for each replicate.
(§29) As soon as the 96-well donor plate was finished being loaded, it was gently placed into the 96-well
(§30) Teflon acceptor plate, taking care not to trap any air bubbles beneath the membrane.
(§31) The donor/acceptor plates were covered gently with the lid to minimize evaporation and transferred
(§32) gently as a system to a sealed chamber and left to sit overnight at room temperature. The chamber
(§33) was kept from drying by placing a wet paper towel within to prevent evaporation.
(§34) After ~19-20 hours the donor plate was removed from the acceptor plate.
(§35) 50 µL of each well (donor and acceptor) were transferred to a 96 -well plate and diluted with 50 µL
(§36) of methanol prior to heat sealing and quantification by UPLC -MS.

in vitro [4] = conditions: PAMPA
Procedure: as §16, §17
protocol then proceeded as follows:
as §18, §19
Analyte – 10 µM per compound
as §20, §21, §22, §23, §24, §25, §26, §27, §28, §29, §30, §31, §32, §33, §34, §35, §36

[5] = PAMPA
Procedure: as §16, §17
protocol then proceeded as follows:
as §18, §19
Analyte – 10 µM per compound
as §20, §21, §22, §23, §24, §25, §26, §27, §28, §29, §30, §31, §32, §33, §34, §35, §36

in vitro [6] = conditions: dog, pH 7.4
Procedure: as §1, §2, §3, §4, §5, §6, §7, §8, §9, §10, §11, §12, §13
concentration at t=0h and t=3h. Where:
as §14
A: area of transwell (cm2).
as §15

[7] = PAMPA, 10 µM, pH 7.4
in vitro [8] = conditions: PAMPA, pH 7.4, Permeability (Papp) PAMPA (mixture)
[9] = 10 µM, pH 7.4
Procedure: as §16, §17
protocol then proceeded as follows:
as §18, §19
Analyte – 10 µM per compound
as §20, §21, §22, §23, §24, §25, §26, §27, §28, §29, §30, §31, §32, §33, §34, §35, §36

[10] = design: method as in Fouché et al.; conditions: rat; ref Fouché et al.; cited from earlier work
[11] = design: method as in Fouché et al.; conditions: ref Fouché et al.; cited from earlier work
[12] = pH 7.4, Permeability (Papp) PAMPA (indiv.)

Procedure for physchem: Kinetic Solubility PBS Protocol
4 µL of 10 mM compound in DMSO stock was added to 196 µL 1 X PBS pH 7.4 in a 96 -well microplate to
get a final concentration of 200 µM to shake for 24 hours at 1000 rpm. The sample was filtered sample
using a 96-Multiscreen HTS filter plate (Millipore MSSL BPC50) and a positive pressure manifold.

| Papp [5] [×10⁻⁶ cm/s] | Papp at 10 µM (in vitro [4]; [12]) [×10⁻⁶ cm/s] | %R_avg [7] [%] | PAMPA Papp_avg [9] [×10⁻⁶ cm/s] | Papp A→B at 3 h, 10 µM (in vitro [6]; MDCK) [×10⁻⁶ cm/s] | SMILES | Papp [1] [×10⁻⁶ cm/s] | also measured |
| --- | --- | --- | --- | --- | --- | --- | --- |
| – | 3.9 | 8.2 | 3.86 | 4 | CCCN1CC(=O)N[C@@H](CC)C(=O)N(C)[C@@H](C)C(=O)N[C@@H](CC(C)C)C(=O)N(C)[C@H](C(=O)OCC)CSCC(=O)N[C@@H](CC(C)C)C(=O)N(C)[C@@H](C)C(=O)N[C@@H](CC(C)C)C(=O)N2CCC[C@@H]2C1=O [LA04, O=C(N(C)[C@H](C(OCC)=O)CSCC(N[C@H](C(N(C)[C@@H](C)C(N[C@@H](CC(C)C)C(N1[C@H](CCC1)C(N(CCC)CC(N[C@H]2CC)=O)=O)=O)=O)=O)CC(C)C)=O)[C@H](CC(C)C)NC([C@H](C)N(C)C2=O)=O] ({CH2CO}-L[NMeA]L[dP][NPrGly][Abu][NMeA]L[NMeC]-OEt; thioether N-9) | – | Papp at 10 µM (in vitro [8]): 4 ×10⁻⁶ cm/s; solubility kinetic at 24 h (physchem; pH 7.4, kinetic from dmso stock): 200 µM (≈ 199 µg/mL) |
| – | 3.3 | 11.2 | 3.3 | 6.5 | CCC[C@H]1C(=O)N[C@@H](CC)C(=O)N(C)[C@@H](C)C(=O)N[C@@H](CC(C)C)C(=O)N(C)[C@H](C(=O)OCC)CSCC(=O)N[C@@H](CC(C)C)C(=O)N(C)[C@@H](C)C(=O)N[C@@H](CC(C)C)C(=O)N2CCC[C@@H]2C(=O)N1C [LC04, O=C(N(C)[C@H](C(OCC)=O)CSCC(N[C@H](C(N(C)[C@@H](C)C(N[C@@H](CC(C)C)C(N1[C@H](CCC1)C(N(C)[C@@H](CCC)C(N[C@H]2CC)=O)=O)=O)=O)=O)CC(C)C)=O)[C@H](CC(C)C)NC([C@H](C)N(C)C2=O)=O] ({CH2CO}-L[NMeA]L[dP][NMeNva][Abu][NMeA]L[NMeC]-OEt; thioether N-9) | – | solubility kinetic at 24 h (physchem; pH 7.4, aqueous with cosolvent or surfactant or cyclodextrin, kinetic from dmso stock): 183 µM (≈ 185 µg/mL) |

The next lines start with the compound.

| SMILES | Papp [5] [×10⁻⁶ cm/s] | Papp at 10 µM (in vitro [4]; [12]) [×10⁻⁶ cm/s] | %R_avg [7] [%] | PAMPA Papp_avg [9] [×10⁻⁶ cm/s] | Papp A→B at 3 h, 10 µM (in vitro [6]; MDCK) [×10⁻⁶ cm/s] | Papp [1] [×10⁻⁶ cm/s] | also measured |
| --- | --- | --- | --- | --- | --- | --- | --- |
| CCOC(=O)[C@@H]1CSCC(=O)N[C@H](CC)C(=O)N(C)[C@@H](C)C(=O)N[C@@H](CC(C)C)C(=O)N(C)[C@H](C)C(=O)N(CC(C)C)CC(=O)N[C@H](CC(C)C)C(=O)N(C)[C@H](C)C(=O)N[C@@H](CC(C)C)C(=O)N1C [A1, O=C(N(C)[C@H](C(OCC)=O)CSCC(N[C@@H](C(N(C)[C@@H](C)C(N[C@@H](CC(C)C)C(N(C)[C@H](C)C(N(CC(C)C)CC(N[C@@H]1CC(C)C)=O)=O)=O)=O)=O)CC)=O)[C@H](CC(C)C)NC([C@@H](C)N(C)C1=O)=O] ({CH2CO}-[dAbu][NMeA]L[dNMeA][Nleu][dL][dNMeA]L[NMeC]-OEt; thioether N-9) | – | – | – | – | – | 9 | MDCK Pe_avg ([2]; resynthesized stereoscan compounds, 10 μM, HBSS pH 7.4, 3 h): 9.02 ×10⁻⁶ cm/s; Papp ([3]; PAMPA Papp, Figure 5): 10 ×10⁻⁶ cm/s; Papp ([3]; Papp): ~10 ×10⁻⁶ cm/s |
| CCOC(=O)[C@@H]1CSCC(=O)N[C@H](CC)C(=O)N(C)[C@@H](C)C(=O)N[C@@H](CC(C)C)C(=O)N2CCC[C@@H]2C(=O)N(CC(C)C)CC(=O)N[C@H](CC(C)C)C(=O)N(C)[C@H](C)C(=O)N[C@@H](CC(C)C)C(=O)N1C [A1-4dP, O=C(N(C)[C@H](C(OCC)=O)CSCC(N[C@@H](C(N(C)[C@@H](C)C(N[C@@H](CC(C)C)C(N1[C@H](CCC1)C(N(CC(C)C)CC(N[C@@H]2CC(C)C)=O)=O)=O)=O)=O)CC)=O)[C@H](CC(C)C)NC([C@@H](C)N(C)C2=O)=O] ({CH2CO}-[dAbu][NMeA]L[dP][Nleu][dL][dNMeA]L[NMeC]-OEt; thioether N-9) | 0.3 | – | – | – | – | – | Papp at 10 µM (in vitro [4]; pH 7.4, PAMPA Pe_avg): 0.398 ×10⁻⁶ cm/s; MDCK Papp ([2]; MDCK): 0.0 × 10^–6 cm/s; Papp A→B at 3 h, 10 µM (in vitro [6]): 0.0246 ×10⁻⁶ cm/s |
| CC(C)C[C@@H]1NC(=O)[C@H](Cc2ccccc2)N(C)C(=O)[C@H]2CCCN2C(=O)[C@H](CC(C)C)NC(=O)[C@H](C)N(C)C(=O)[C@H](CC(C)C)NC(=O)[C@H](Cc2ccccc2)N(C)C(=O)[C@H]2CCCN2C(=O)[C@H](CC(C)C)NC(=O)[C@H](C)N(C)C1=O [compound 1] (cyclo(L[NMeA]L[dP][NMeF]L[NMeA]L[dP][NMeF])) | 5 | – | – | – | – | 11.4 | oral bioavailability [10]: 46 %F; PAMPA Papp [11]: 5.01 × 10^–6 cm/s |

Source: publication PMC10885153, “Membrane Permeability in a Large Macrocyclic Peptide Driven by a Saddle-Shaped Conformation” (Journal of the American Chemical Society, 2024)
